From the supplement of paper PMC4862054

Assays:
Assay in all cases: normalised response (% of control), CellTiter-Glo; higher = more viable cells (100 = DMSO, 0 = benzethonium chloride kill control)
Details in all cases: incubation time: 72 h
[1] = system: HCC1599
How it was run: (§1)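 Compound was dispensed into 384-well plates at 5 concentrations in 10-fold steps spanning a 10,000-fold range specific to that compound. Breast cancer cell lines were added as 20 µl suspension and left for 72 h before CellTox Green fluorescence (485/520 nm) and then CellTiter-Glo luminescence, read after 10 min at room temperature. Each reported value is the normalised signal at one concentration, with 0.1 % DMSO set at 100 and a positive kill control at 0 on each plate.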

[2] = system: CAL-51
How it was run: as §1

[3] = system: HCC1937
How it was run: as §1

[4] = system: HCC1143
How it was run: as §1

[5] = system: MDA-MB-453
How it was run: as §1

[6] = system: DU-4475
How it was run: as §1

[7] = system: HDQ-P1
How it was run: as §1

[8] = system: SK-BR-3
How it was run: as §1

[9] = system: BT-474
How it was run: as §1

[10] = system: CAL-120
How it was run: as §1

[11] = system: Hs578T
How it was run: as §1

[12] = system: MFM-223
How it was run: as §1

[13] = system: CAL-85-1
How it was run: as §1

[14] = system: MDA-MB-468
How it was run: as §1

[15] = system: MCF-10A
How it was run: as §1

[16] = system: MDA-MB-436
How it was run: as §1

[17] = system: BT-549
How it was run: as §1

[18] = system: CAL-148
How it was run: as §1

[19] = system: MDA-MB-231
How it was run: as §1

Compound | normalised response [1] [%] | normalised response [2] [%] | normalised response [3] [%] | normalised response [4] [%] | normalised response [5] [%] | normalised response [6] [%] | normalised response [7] [%] | normalised response [8] [%] | normalised response [9] [%] | normalised response [10] [%] | normalised response [11] [%] | normalised response [12] [%] | normalised response [13] [%] | normalised response [14] [%] | normalised response [15] [%] | normalised response [16] [%] | normalised response [17] [%] | normalised response [18] [%] | normalised response [19] [%]
CN1CC[C@H](c2c(O)cc(O)c3c(=O)cc(-c4ccccc4Cl)oc23)[C@H](O)C1 [Alvocidib] (1000 nM) | 17.2 | 9.5 | 29.1 | 17.1 | 28 | 10.1 | 19.8 | 2.44 | 20 | 35.2 | 10.1 | 14 | 8.63 | 8.32 | 11.2 | 14.2 | 5.76 | 26.1 | 3.01
Nc1nc(Cl)nc2c1ncn2[C@H]1C[C@H](O)[C@@H](CO)O1 [Cladribine] (100 nM) | 112 | 90.1 | 90.3 | 100 | 106 | 101 | 97.5 | 111 | 97.1 | 94.5 | 100 | 101 | 104 | 93.8 | 107 | 104 | 77.7 | 97.8 | 93.3
Nc1ccn([C@@H]2O[C@H](CO)[C@@H](O)[C@@H]2O)c(=O)n1 [Cytarabine] (1000 nM) | 93.4 | 39.7 | 85.2 | 80.6 | 105 | 77.8 | 92 | 46.7 | 90.6 | 88 | 81.6 | 101 | 94.5 | 74.3 | 104 | 46.4 | 61.9 | 55.5 | 86.8
Cc1c2oc3c(C)ccc(C(=O)N[C@@H]4C(=O)N[C@H](C(C)C)C(=O)N5CCC[C@H]5C(=O)N(C)CC(=O)N(C)[C@@H](C(C)C)C(=O)O[C@@H]4C)c3nc-2c(C(=O)N[C@@H]2C(=O)N[C@H](C(C)C)C(=O)N3CCC[C@H]3C(=O)N(C)CC(=O)N(C)[C@@H](C(C)C)C(=O)O[C@@H]2C)c(N)c1=O [Dactinomycin] (100 nM) | 8.92 | 2.69 | 18.9 | 8.6 | 6.8 | 0.24 | 21.8 | 11.3 | 6.79 | 19.8 | 7.79 | 26.6 | 6.91 | 3.22 | 5.33 | 17 | 6.05 | 2.05 | 2.57
COc1cccc2c1C(=O)c1c(O)c3c(c(O)c1C2=O)C[C@@](O)(C(=O)CO)C[C@@H]3O[C@H]1C[C@H](N)[C@H](O)[C@H](C)O1 [Doxorubicin] (100 nM) | 115 | 39 | 107 | 105 | 117 | 80.7 | 98.7 | 92.2 | 82.9 | 98.6 | 98.7 | 115 | 103 | 71.4 | 106 | 85.4 | 78.3 | 82.7 | 95.9
Cc1ccc(F)c(NC(=O)Nc2ccc(-c3cccc4[nH]nc(N)c34)cc2)c1 [Linifanib] (100 nM) | 104 | 75.2 | 102 | 105 | 112 | 98.7 | 103 | 112 | 106 | 114 | 98 | 110 | 100 | 104 | 105 | 112 | 103 | 109 | 111
S=c1[nH]cnc2nc[nH]c12 [Mercaptopurine] (1000 nM) | 80.5 | 108 | 59.4 | 95.3 | 98.6 | 79.7 | 47.7 | 95.2 | 75.6 | 88.8 | 71.8 | 93.7 | 92.6 | 91.8 | 94.2 | 88.7 | 103 | 85 | 66.6
Clc1ccc(C(c2ccccc2Cl)C(Cl)Cl)cc1 (configuration not stated) [Mitotane] (1000 nM) | 121 | 98.3 | 99.6 | 94.1 | 92.5 | 95.3 | 101 | 94.2 | 92 | 97.7 | 104 | 97.4 | 101 | 98.7 | 91.7 | 98.2 | 100 | 95.7 | 101
